Values of other authors, collected in patent publication US6919335B2, “Heterocycles that are inhibitors of IMPDH enzyme” (Bristol-Myers Squibb Co., priority 2000, dated 2005).
Where two headings read alike, the source gives them in different places.

Tests used:
[1] = tested on: proinflammatory cytokines (IL-2, IL-4, and IFN); conditions: RT-PCR; Rol 10^−7 M, MPA 10^−8 M, or the combination
IMPDH types I and II = conditions: RT-PCR, low and high concentrations, alone or both
[2] = tested on: antigen-specific T lymphocyte responses; conditions: for approximate IC10: inhibition of antigen-induced proliferation; for synergistic effect on inhibition of antigen-induced proliferation: in combination with Rol 10^−7 M; for % inhibition of proliferation: Rol plus MPA

Structure (SMILES)	downregulation in the generation of proinflammatory cytokines [1]	gene expression for IMPDH types I and II (IMPDH types I and II)	approximate IC10 [2]	synergistic effect on inhibition of antigen-induced proliferation [2]	% inhibition of proliferation ([2]; with deoxyguanosine (antagonist of MPA on IMPDH), p<0.05)	% inhibition of proliferation ([2]; without deoxyguanosine)
COc1ccc(C2CNC(=O)C2)cc1OC1CCCC1 (stereo not shown) [rolipram, 4-[3-(cyclopentyloxy)-4-methoxy-phenyl]-2-pyrrolidinone]	no significant downregulation	remained unaffected	~10^−7 M	–	–	–
CCCC(=O)Nc1ncnc2c1ncn2[C@@H]1O[C@@H]2COP(=O)(O)O[C@H]2[C@H]1OC(=O)CCC [dibuteryl-cAMP]	–	–	~2e-06 M	–	–	–
C=CC[C@@H]1/C=C(\C)C[C@H](C)C[C@H](OC)[C@H]2O[C@@](O)(C(=O)C(=O)N3CCCC[C@H]3C(=O)O[C@H](/C(C)=C/[C@@H]3CC[C@@H](O)[C@H](OC)C3)[C@H](C)[C@@H](O)CC1=O)[C@H](C)C[C@@H]2OC [tacrolimus]	–	–	–	little or no synergistic effect	–	–
COc1c(C)c2c(c(O)c1C/C=C(\C)CCC(=O)O)C(=O)OC2 [MPA, mycophenolic acid]	no significant downregulation	remained unaffected	–	marked synergistic effect	35±12%	81±16%
